Molecules are shown by their SMILES. “Also recorded” adds a separate entry of the source.

Consider two compounds from US20050009772A1, “Methods and compositions for the treatment of glaucoma and other retinal diseases” (The Regents of the University of California, priority 2003, published 2005).

The test system of one assay is retinal ganglion cells. Nature of the assay: 2DG administration in the animal model of glaucoma. In kind it is in vivo. The note with it: animal model of glaucoma employed herein. As to the method: Lan et al., NeuroReport 14:2369-72 (2003). In the hands of the, present inventors, however, 2DG administration was ineffective in protecting retinal ganglion cells in the animal model of glaucoma employed herein. Thus, confirmation of efficacy in a relevant animal model is required before any actual conclusions can be drawn.
Rats were anesthetized with intramuscular injections of 0.8 ml/kg of the anesthetic cocktail described above. A previously published procedure was modified to produce chronic moderately elevated IOP unilaterally, while the untreated contralateral eye served as the comparative control.40 Animals were injected intracamerally with 10 μl of 35% India ink (Becton Dickinson, Cockeysville, Md.) in 0.01 M PBS after removing a similar volume of aqueous. At the end of the procedure, Tobrex ophthalmic ointment (tobramycin 0.3%; Alcon, Fort Worth, Tex.) was applied topically. Five days after intracameral injection of India ink, a dark band at the limbus was noted due to the aggregation of carbon particles in the trabecular meshwork.38 After anesthesia, approximately 200 laser burns were delivered ab externo to the pigmented trabecular band at laser settings of 200 μm diameter, 200 mW power and 0.2 seconds duration. Three weeks after the first laser treatment, another trabecular laser photocoagulation was performed without further injection of ink.

Assay [1] concerns HSP72. Nature of the assay: Western blot for HSP72 in enriched RGC fraction after systemic administration of GGA (Experiment 1). Conditions: GGA 200 mg/kg co-administered with quercetin 4 mg/kg daily i.p., 7 days. In kind it is in vivo, rat. On the technique in general: A western blot detects proteins with antibodies after separation by electrophoresis.
Experimental: Experiment 1 was performed to evaluate the expression of HSP72 and HSC70 in RGCs after systemic administration of GGA with Western blot analysis and immunohistochemistry. For Western blotting, twelve rats were equally divided into 6 groups. Three groups of animals were given intraperitoneal injections of GGA 200 mg/kg daily and were euthanized after 1-, 3- or 7 days of administration of GGA. Three control groups were intraperitoneally administered 1) saline-vehicle daily for 7 days; 2) GGA with 4 mg/kg of quercetin (Sigma, St. Louis, Mo.) daily for 7 days; and 3) untreated animals. Enriched RGC fraction was harvested from 2 retinas of each group and used for Western blot analysis. The same experiment for isolation of RGCs and Western blotting was repeated with the other 2 retinas-from each group.
A solution of 80 mg/mL GGA was prepared in saline (Balanced salt solution; Alcon Laboratories, Inc., Fort Worth, Tex.) and emulsified for one hour in an ultrasonic generator (Branson Ultrasonic Corp., Danbury, Conn.) immediately before administration. Intraperitoneal injections of GGA were given at a dose of 200 mg/kg. Saline-vehicle was prepared and administered in the same fashion in vehicle-treated control groups.
A previously described method was modified to partially purify RGCs from other retinal cells in rat retinas.38 Briefly, two dissected rat retinas from each subgroup were washed in 2.5 ml of calcium- and magnesium-free phosphate buffered saline (PBS) at pH 7.4, and incubated in 1.25 ml of PBS containing 0.5 mg/ml trypsin and 0.01% deoxyribonuclease for 15 minutes at 37° C. This was followed by washing the retinas twice in 2.5 ml of minimal essential medium (MEM) containing 10% (vol/vol) fetal bovine serum. The retinas were subsequently washed in 2.5 ml of MEM twice and dissociated in 3 ml of MEM. The cell suspension was then mixed with 1.5 ml of 30% metrizamide (ICN Biomedicals, Inc., Aurora, Ohio) in MEM to a final concentration of 10 metrizamide. This mixture was then overlaid with 5% metrizamide in MEM, and the gradient was centrifuged at 4500 rpm (HB-4; Sorvall Instruments, Newtown, Conn.) for 25 minutes at 4° C. The cells in the 5% to 10% interface were collected. and washed in 25 ml of cold MEM. The washed cells were pelleted by centrifugation at 250×g for 10 minutes (Juan 3000C centrifuge, Winchester, Va.). The cells were then resuspended in 400 μl of MEM buffer, and the protein concentration in the cell suspension was measured with a bicinchoninic acid (BCA) protein assay kit (Pierce, Rockford, Ill.).
Western blot analysis was performed according to the procedure described by Towbin et al.39 Aliquots of 20 μg of protein from enriched RGCs were separated on a 12% SDS-polyacrylamide minigel (Bio-Rad, Hercules, Calif.) and transferred to the membrane (Immunobilon-P; Millipore Corporation, Bedford, Mass.). The membrane was blocked by incubation in 0.1% Tween-20 in 100 mM Tris-buffered saline containing 10% nonfat dried milk for 1 hour. The membranes were incubated with mouse monoclonal antibody against HSP72 (1:1000; StressGen Biotechnologies Corp., Victoria, British Columbia, Canada) or with rat monoclonal antibody against HSC70 (1:1000; StressGen) overnight and then biotinylated rabbit anti-mouse secondary antibody (1:500; Amersham Pharmacia Biotech, Inc., Piscataway, N.J.) or biotinylated goat anti-rat secondary antibody (1:500; Amersham Pharmacia) for 1 hour. This was followed by incubation with streptavidin-conjugated horseradish peroxidase (1:2000; Amersham Pharmacia) for 40 minutes. The immunoreactive bands were detected by chemiluminescence with an enhanced chemiluminescence Western blot reagent (Amersham Pharmacia).
The subject of assay [2] is retinal ganglion cells (RGCs). Nature of the assay: Density of DTMR-labeled RGCs in rat glaucoma model (Experiment 2). Format: in vivo. Conditions: retinas with IOP elevation, 5 weeks; quercetin = co-administered with GGA. As to the method: GGA was then given twice a week at the same dose until euthanasia. Sustained elevation of intraocular pressure (IOP) was maintained by performing trabecular laser photocoagulation three weeks after the first photocoagulation. […] IOP and body weight were measured once a week. […] Rats were anesthetized with intramuscular injections of 0.8 ml/kg of the anesthetic cocktail described above. A previously published procedure was modified to produce chronic moderately elevated IOP unilaterally, while the untreated contralateral eye served as the comparative control.40 Animals were injected intracamerally with 10 μl of 35% India ink (Becton Dickinson, Cockeysville, Md.) in 0.01 M PBS after removing a similar volume of aqueous. At the end of the procedure, Tobrex ophthalmic ointment (tobramycin 0.3%; Alcon, Fort Worth, Tex.) was applied topically. Five days after intracameral injection of India ink, a dark band at the limbus was noted due to the aggregation of carbon particles in the trabecular meshwork.38 After anesthesia, approximately 200 laser burns were delivered ab externo to the pigmented trabecular band at laser settings of 200 μm diameter, 200 mW power and 0.2 seconds duration. Three weeks after the first laser treatment, another trabecular laser photocoagulation was performed without further injection of ink. […] A cross section of the optic nerve was made with the needle knife through the opening of the optic nerve sheath, with care not to damage the adjacent blood supply. DTMR crystals were applied to the proximal cut surface of the optic nerve to label RGCs by fast retrograde axonal transport. After euthanasia and enucleation, the retinas were dissected and flattened with four radial cuts (superotemporal, inferotemporal, superonasal, and inferonasal). They were placed with vitreal side up on glass slides, dried in the dark at room temperature overnight and mounted. The retinas were examined with a fluorescence microscope (Axioplan; Carl Zeiss, Oberkochen, Germany) equipped with a filter that permits visualization of rhodamine fluorescence (excitation filter BP 546, barrier filter LP590; Carl Zeiss). The counting of RGCs was conducted by 2 examiners in a masked fashion. […] Each rectangular area measured 0.475 mm×0.362 mm and the total counted area corresponded to approximately 3.1% of each total retinal area. Data are expressed as number of RGCs per mm2.

Assay [3] deals with TUNEL positive cells in the RGCL. Nature of the assay: TUNEL analysis of RGCL after 1 week of IOP elevation (Experiment 3). In kind it is in vivo, rat. Conditions: elevated IOP retinas, 1 week; quercetin = co-administered with GGA.
Experimental: Experiment 3 was performed to investigate the inhibition of apoptosis with GGA administration after 1 week of IOP elevation (n=56).
Rats were anesthetized with intramuscular injections of 0.8 ml/kg of the anesthetic cocktail described above. […] At the end of the procedure, Tobrex ophthalmic ointment (tobramycin 0.3%; Alcon, Fort Worth, Tex.) was applied topically. Five days after intracameral injection of India ink, a dark band at the limbus was noted due to the aggregation of carbon particles in the trabecular meshwork.38 After anesthesia, approximately 200 laser burns were delivered ab externo to the pigmented trabecular band at laser settings of 200 μm diameter, 200 mW power and 0.2 seconds duration. Three weeks after the first laser treatment, another trabecular laser photocoagulation was performed without further injection of ink.
Four-μm thick paraffin embedded sections along the vertical meridian of the optic nerve head were collected and a minimum of 6 retinal sections (8 μm apart) per eyeball was used for counting the number of TUNEL positive cells in the RGCL. Only full length and undamaged retinal sections without oblique orientation were used. The procedures described in the ApopTag Peroxidase In Situ Apoptosis Detection Kit (Intergen Co., Purchase, N.Y.) were followed and diaminobenzidine (Sigma, St. Louis, Mo.) was used as a color substrate. Counting was performed by two masked investigators with light microscopy, and averaged.
The test system of assay [4] is HSP72. Nature of the assay: Quantitative immunohistochemical analysis of HSP72 in the RGCL after 1 week of IOP elevation (Experiment 3). Format: in vivo, rat. Conditions: quercetin = co-administered with GGA. As to the method: TdT-mediated biotin-dUTP nick end labeling (TUNEL) and immunohistochemical analysis for HSP72 and HSC70 were performed.
Animals were deeply anesthetized with intramuscular injections of 0.8 ml/kg of a cocktail of 5 ml ketamine (100 mg/ml), 2.5 ml xylazine (20 mg/ml), 1.0 ml acepromazine (10 mg/ml), and 1.5 ml normal saline. Then they were transcardially perfused with 4% paraformaldehyde in 0.1 M phosphate buffer. The enucleated eyeballs were immersed in fixative for 1 hour, bisected and post-fixed overnight. The eyes were embedded in paraffin and sectioned at a four-μm thickness along the vertical meridian through the optic nerve head. After deparaffinization and hydration, a species-specific Vectastain ABC kit (Vector Laboratories, Inc., Burlingame, Calif.) was chosen to match the species of primary antibody and the manufacturer's procedures were followed. The tissue sections were incubated with blocking serum solution in PBS for 1 hour. This was followed by incubation with primary antibody at 4° C overnight. The antibodies were mouse monoclonal antibody against HSP72 (1:500; StressGen Biotechnologies Corp., Victoria, British Columbia, Canada), goat polyclonal antibody against HSP72 (1:1000; Santa Cruz Biotechnology, Inc., Santa Cruz, Calif.) or rat monoclonal antibody against HSC70 (1:200; StressGen). Antigen-antibody complexes were detected by an avidin-biotin-peroxidase technique (Vectastain ABC Kit; Vector Laboratories). Diaminobenzidine (DAB) was used to produce a brown color in the target tissue and the slides were permanently mounted. As a negative control, alternate retinal section was incubated with blocking solution by replacing the primary antibody or with anti-rabbit secondary antibody by replacing the original secondary antibody.
Immunohistochemical staining was analyzed quantitatively with a computer-assisted image processing unit (Image-Pro Plus software, Media Cybernetics, Silver Spring, Md.) and the “count-measure” function. Images of immuno-stained sections were captured with a digital camera (Cool snap, RS Photometric, Tucson, Ariz.) attached to the microscope (Axio plan, Carl Zeiss, Oberkochen, Germany) at 630× magnification under oil immersion. The system was calibrated according to the supplier's manual before the analysis. For each digital image, all individual cells in the RGCL were marked by a masked examiner and the optical density of each cell was measured. The relative intensities of cells in the RGCL were measured and averaged (±SEM) to yield a single value representing one retina.

On to `OCC1OC(O)CC(O)C1O` [2DG, 2-deoxy-D-gluycose], for which the “protection of retinal ganglion cells” value with retinal ganglion cells is reported as “ineffective”.

For `O=c1c(O)c(-c2ccc(O)c(O)c2)oc2cc(O)cc(O)c12` [quercetin], the “expression of HSP72 in RGCs (immunoblot)” value with HSP72 [1] was “inhibited”. Also, the “effect on density of DTMR-labeled RGCs (in words)” value in assay [2] is given as “abolished the protective effect”. Further, the “effect on number of TUNEL positive cells (in words)” value in assay [3] is on record as “reversed”. For the same compound, the “HSP72 expression (immunoreactive intensity) in the RGCL” value in the assay with HSP72 [4] (control (normal IOP) retinas vs vehicle-alone controls) is “abolished; also recorded: diminished”; in the assay with HSP72 [4] (retinas with IOP elevation, 1 week), “significantly reduced; also recorded: abolished”.
